# Measured values as given in patent US20260217652A1, “PHENYL-SUBSTITUTED HETEROARYL COMPOUND AND PHARMACEUTICAL COMPOSITION COMPRISING SAME, PREPARATION METHOD THEREFOR AND USE THEREOF” (SHANGHAI MEIYUE BIOTECH DEVELOPMENT CO., LTD., priority 2023, published 2026).
# Target: T1, p38 MAPK/MK2 (Homo sapiens, UniProt Q16539)
# T1 construct: purchased Carna (p38α); Abcam (MK2) 04-152; 79910
# Test: In vitro activity assay of p38 MAPK/MK2 (Z-LYTE kinase assay kit)
# Format: biochemical
# Details: active p38α, inactive MK2, Ser/Thr 4; 1-hour reaction at 20° C.
# Description: The inhibitory effect of the compound on p38 MAPK/MK2 was evaluated using the Z-LYTE kinase assay kit (Thermo, PV3177). The test compound was dissolved in DMSO to obtain a 10 mM stock solution and stored at −20° C. for future use. The initial concentration of the compound was […], with 1% DMSO, 5-fold serial dilution, 8 concentrations, and duplicate wells. […] After a 1-hour reaction at 20° C., Development Reagent A diluted 2048-fold was added to each well, followed by incubation at room temperature for 1 hour. The reaction was terminated by adding 5 μL of stop buffer, and the plate was read using a microplate reader (Ex. 400 nm, Em. 445 nm; Ex. 400 nm, Em. 520 nm). The concentration-effect curve was fitted using GraphPad Prism 8 software, and the compound concentration resulting in 50% inhibition, IC50, was calculated.
# T1 sequence (Q16539 whole entry): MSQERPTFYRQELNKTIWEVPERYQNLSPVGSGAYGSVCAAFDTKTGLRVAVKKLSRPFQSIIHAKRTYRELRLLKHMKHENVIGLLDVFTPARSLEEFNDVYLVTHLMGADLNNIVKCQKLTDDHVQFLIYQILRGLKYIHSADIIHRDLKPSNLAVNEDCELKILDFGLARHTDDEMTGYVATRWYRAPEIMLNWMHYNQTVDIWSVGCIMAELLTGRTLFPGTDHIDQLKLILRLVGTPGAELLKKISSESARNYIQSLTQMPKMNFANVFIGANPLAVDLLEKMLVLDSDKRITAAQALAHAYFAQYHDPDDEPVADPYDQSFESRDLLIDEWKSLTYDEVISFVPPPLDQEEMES
# T1 sequence (P49137 whole entry partner): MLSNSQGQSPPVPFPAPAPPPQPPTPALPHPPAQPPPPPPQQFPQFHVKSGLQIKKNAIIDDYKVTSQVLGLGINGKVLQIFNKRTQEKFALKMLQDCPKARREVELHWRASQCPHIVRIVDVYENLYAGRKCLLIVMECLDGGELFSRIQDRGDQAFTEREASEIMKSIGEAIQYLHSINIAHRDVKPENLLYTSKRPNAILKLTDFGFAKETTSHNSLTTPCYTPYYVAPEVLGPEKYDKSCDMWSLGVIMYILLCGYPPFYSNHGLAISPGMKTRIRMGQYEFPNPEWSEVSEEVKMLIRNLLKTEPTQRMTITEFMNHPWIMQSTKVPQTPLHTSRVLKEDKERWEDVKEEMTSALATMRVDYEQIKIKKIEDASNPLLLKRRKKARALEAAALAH
row,IC50 [nM],SMILES
1,1.68,"Cc1cnc(-c2cccc(C(C)(O)C(N)=O)c2F)cc1-n1c(C)cc(OCc2ncc(F)cc2F)c(Cl)c1=O (single isomer, unassigned) [Compound 126-P1]"
2,0.28,"Cc1cnc(-c2cccc(C(C)(O)C(N)=O)c2F)cc1-n1c(C)cc(OCc2ncc(F)cc2F)c(Cl)c1=O (single isomer, unassigned) [Compound 126-P3]"
3,0.71,Cc1cnc(-c2cccc([C@](C)(O)CO)c2F)cc1-n1c(C)cc(OCc2ncc(F)cc2F)c(Cl)c1=O [Compound 35-P2]
4,2.39,Cc1cnc(-c2cccc(C(C)(O)CO)c2F)cc1-n1c(C)cc(OCc2ncc(F)cc2F)c(Cl)c1=O (centres unmarked) [Compound 35]
5,4.66,Cc1cnc(-c2cccc([C@](C)(O)CO)c2Cl)cc1-n1c(C)cc(OCc2ncc(F)cc2F)c(Cl)c1=O [Compound 37-1]
6,0.35,Cc1cnc(-c2cccc([C@](C)(O)CO)c2Cl)c(F)c1-n1c(C)cc(OCc2ncc(F)cc2F)c(Cl)c1=O [Compound 62-P1]
7,0.058,Cc1cnc(-c2cccc([C@@](C)(O)CO)c2Cl)c(F)c1-n1c(C)cc(OCc2ncc(F)cc2F)c(Cl)c1=O [Compound 62-P3]
8,8.54,Cc1cnc(-c2cccc([C@@](C)(O)CO)c2)cc1-n1c(C)cc(OCc2ncc(F)cc2F)c(Cl)c1=O [Compound 87-P1]
9,0.93,Cc1cnc(-c2cccc(C(C)(C)O)c2F)cc1-n1c(C)cc(OCc2ncc(F)cc2F)c(Cl)c1=O [Compound 101]
10,0.15,Cc1cnc(-c2cccc(C(C)(C)O)c2O)cc1-n1c(C)cc(OCc2ncc(F)cc2F)c(Cl)c1=O [Compound 102]
11,1.94,Cc1cnc(-c2cc(F)cc([C@](C)(O)CO)c2F)cc1-n1c(C)cc(OCc2ncc(F)cc2F)c(Cl)c1=O [Compound 110-1]
12,0.7,Cc1cnc(-c2cc(F)cc([C@@](C)(O)CO)c2F)cc1-n1c(C)cc(OCc2ncc(F)cc2F)c(Cl)c1=O [Compound 110-P1]
13,7.94,CC[C@](O)(CO)c1cccc(-c2cc(-n3c(C)cc(OCc4ncc(F)cc4F)c(Cl)c3=O)c(C)cn2)c1F [Compound 147]
14,15.9,COC[C@](C)(O)c1cccc(-c2cc(-n3c(C)cc(OCc4ncc(F)cc4F)c(Cl)c3=O)c(C)cn2)c1F [Compound 148-P1]
15,8.59,CNCC(C)(O)c1cccc(-c2cc(-n3c(C)cc(OCc4ncc(F)cc4F)c(Cl)c3=O)c(C)cn2)c1F (centres unmarked) [Compound 150]
16,20.6,COc1cnc(-c2cccc([C@@](C)(O)CO)c2F)cc1-n1c(C)cc(OCc2ncc(F)cc2F)c(Cl)c1=O [Compound 154]

# The next lines start with the compound.
row,SMILES,IC50 [nM]
1,"COC[C@](C)(O)c1c(F)ccc(-c2cc(-n3c(C)cc(OCc4ncc(F)cc4F)c(Cl)c3=O)c(C)cn2)c1F (atropisomer, axis not shown) [Compound 149]",2.25
2,"Cc1cnc(-c2ccc(F)c([C@@](C)(O)CO)c2)c(F)c1-n1c(C)cc(OCc2ncc(F)cc2F)c(Cl)c1=O (single isomer, unassigned) [Compound 51-P1]",1.83
3,"Cc1cnc(-c2ccc(F)c([C@](C)(O)CO)c2F)cc1-n1c(C)cc(OCc2ncc(F)cc2F)c(Cl)c1=O (single isomer, unassigned) [Compound 65-1]",1.27
4,"Cc1cnc(-c2ccc(F)c([C@@](C)(O)CO)c2F)cc1-n1c(C)cc(OCc2ncc(F)cc2F)c(Cl)c1=O (single isomer, unassigned) [Compound 65-2]",1.86
5,"Cc1cnc(-c2ccc(F)c([C@](C)(O)CO)c2F)cc1-n1c(C)cc(OCc2ncc(F)cc2F)c(Cl)c1=O (single isomer, unassigned) [Compound 65-P2]",0.4
6,"Cc1cnc(-c2ccc3c(c2)C(C)(O)C(=O)N3)c(F)c1-n1c(C)cc(OCc2ncc(F)cc2F)c(Cl)c1=O (single isomer, unassigned) [Compound 115-P1]",0.14
7,"Cc1cnc(-c2ccc3c(c2)C(C)(O)C(=O)N3)c(F)c1-n1c(C)cc(OCc2ncc(F)cc2F)c(Cl)c1=O (single isomer, unassigned) [Compound 115-P2]",0.7
8,"CNC(=O)C(C)(O)c1c(F)ccc(-c2cc(-n3c(C)cc(OCc4ncc(F)cc4F)c(Cl)c3=O)c(C)cn2)c1F (single isomer, unassigned) [Compound 116-P2]",2.26
9,"CNC(=O)C(C)(O)c1c(F)ccc(-c2cc(-n3c(C)cc(OCc4ncc(F)cc4F)c(Cl)c3=O)c(C)cn2)c1F (single isomer, unassigned) [Compound 116-P4]",0.14
10,"CNC(=O)C(C)(O)c1cccc(-c2cc(-n3c(C)cc(OCc4ncc(F)cc4F)c(Cl)c3=O)c(C)cn2)c1F (single isomer, unassigned) [Compound 121-P1]",6.81
11,"CNC(=O)C(C)(O)c1cccc(-c2cc(-n3c(C)cc(OCc4ncc(F)cc4F)c(Cl)c3=O)c(C)cn2)c1F (single isomer, unassigned) [Compound 121-P2]",2.83
12,"Cc1cnc(-c2ccc(F)c(C(C)(O)C(N)=O)c2F)cc1-n1c(C)cc(OCc2ncc(F)cc2F)c(Cl)c1=O (single isomer, unassigned) [Compound 125-P1]",0.41
13,"Cc1cnc(-c2ccc(F)c(C(C)(O)C(N)=O)c2F)cc1-n1c(C)cc(OCc2ncc(F)cc2F)c(Cl)c1=O (single isomer, unassigned) [Compound 125-P3]",0.28
14,Cc1cnc(-c2cccc(C(=O)NO)c2)cc1-n1c(C)cc(OCc2ncc(F)cc2F)c(Cl)c1=O [Compound 5],90.3
15,Cc1cnc(-c2cccc(C(=O)NOCCO)c2)cc1-n1c(C)cc(OCc2ncc(F)cc2F)c(Cl)c1=O [Compound 7],87.5
16,Cc1cnc(-c2cccc(C(=O)N3CC(C)(O)C3)c2)cc1-n1c(C)cc(OCc2ncc(F)cc2F)c(Cl)c1=O [Compound 10],60.5
17,CNC(=O)c1cc(-c2cc(-n3c(C)cc(OCc4ncc(F)cc4F)c(Cl)c3=O)c(C)cn2)ccc1F [Compound 17],87.9

row,SMILES,IC50 [nM]
1,Cc1cnc(-c2cccc(C(N)=O)c2F)cc1-n1c(C)cc(OCc2ncc(F)cc2F)c(Cl)c1=O [Compound 21-P2],0.51
2,Cc1ccc(-c2ncc(C)c(-n3c(C)cc(OCc4ncc(F)cc4F)c(Cl)c3=O)c2F)cc1[C@@](C)(O)CO [Compound 52-P1],0.12
3,Cc1cnc(-c2ccc(Cl)c([C@](C)(O)CO)c2)c(F)c1-n1c(C)cc(OCc2ncc(F)cc2F)c(Cl)c1=O [Compound 53-1],1.2
4,Cc1cnc(-c2ccc(Cl)c([C@@](C)(O)CO)c2)c(F)c1-n1c(C)cc(OCc2ncc(F)cc2F)c(Cl)c1=O [Compound 53-2],3.02
5,Cc1cnc(-c2cc([C@@](C)(O)CO)ccc2F)c(F)c1-n1c(C)cc(OCc2ncc(F)cc2F)c(Cl)c1=O [Compound 106-P1],7.73
6,Cc1cnc(-c2cc([C@@](C)(O)CO)ccc2Cl)c(F)c1-n1c(C)cc(OCc2ncc(F)cc2F)c(Cl)c1=O [Compound 107-P1],4.99
7,Cc1cnc(-c2ccc3c(c2)C(C)(C)NC3=O)c(F)c1-n1c(C)cc(OCc2ncc(F)cc2F)c(Cl)c1=O [Compound 129],19.9
8,Cc1cnc(-c2ccc3c(c2F)C(C)(C)NC3=O)cc1-n1c(C)cc(OCc2ncc(F)cc2F)c(Cl)c1=O [Compound 134],39.9
9,Cc1cnc(-c2cccc(C3(O)CC3)c2F)cc1-n1c(C)cc(OCc2ncc(F)cc2F)c(Cl)c1=O [Compound 135],13
10,Cc1cnc(-c2cccc(C3(O)CC3)c2)c(F)c1-n1c(C)cc(OCc2ncc(F)cc2F)c(Cl)c1=O [Compound 136],26.2
11,Cc1cnc(-c2ccc(F)c(C(C)(O)C(=O)O)c2)c(F)c1-n1c(C)cc(OCc2ncc(F)cc2F)c(Cl)c1=O (centres unmarked) [Compound 138-1],1.21
12,CNCC(C)(O)c1cc(-c2ncc(C)c(-n3c(C)cc(OCc4ncc(F)cc4F)c(Cl)c3=O)c2F)ccc1F (centres unmarked) [Compound 139],53
13,Cc1cc(OCc2ncc(F)cc2F)c(Cl)c(=O)n1-c1ccnc(-c2ccc(F)c(C(C)(C)O)c2F)c1 [Compound 142],3.37
14,Cc1cc(OCc2ncc(F)cc2F)c(Cl)c(=O)n1-c1ccnc(-c2cccc([C@@](C)(O)CO)c2F)c1 [Compound 143],18.1
15,Cc1cc(OCc2ncc(F)cc2F)c(Cl)c(=O)n1-c1ccnc(-c2ccc(F)c([C@@](C)(O)CO)c2F)c1 [Compound 144],12.6
16,COc1cnc(-c2cccc(C(C)(C)O)c2F)cc1-n1c(C)cc(OCc2ncc(F)cc2F)c(Cl)c1=O [Compound 155],3.49
17,Cc1cc(OCc2ncc(F)cc2F)c(Cl)c(=O)n1-c1ccnc(-c2cccc(C3(CO)CC3)c2F)c1 [Compound 156],0.336
